Measurements from patent US9273341B2, “Methods for treatment of bacterial infections” (THE JOHNS HOPKINS UNVIERSITY, priority 2010, dated 2016).
In brackets after ≈: the same amount, converted by molar mass.

Columns and labels:
[1] = test system: wild-type M. tuberculosis; assay: microbe, parasite or virus in culture; type: cell-based; conditions: Mycobacterium tuberculosis
[2] = test system: wild-type M. tuberculosis; parameters: species or system Balb/C mice; conditions: mouse, in vivo

SMILES | MIC [1] | bacterial burden (lung CFU) under treatment [2]
N[C@@H]1CON=C1O [D-cycloserine] | 5 µg/mL (≈ 49 µM) | 
NNC(=O)c1ccncc1 [isoniazid] | 0.03 µg/mL (≈ 0.219 µM) | similarly effective
